Measured values taken from ChEMBL document CHEMBL1201862, “PubChem BioAssay data set” (2004).
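The compound was tested at five concentrations on cells cultured in 96-well plates, with a 48-hour exposure period. GI50: concentration for 50% inhibition of growth.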 The source made the active and inactive calls. No stated cut-off is given here; in the data, active = GI50 up to about 1.1 µM and inactive = higher.

Columns and labels:
Assay in all cases: NCI tumour cell line growth inhibition, 48 h
Malme-3M = system: Malme-3M
Hs-578T = system: Hs-578T
SF-268 = system: SF-268
TK-10 = system: TK-10
DU-145 = system: DU-145
COLO 205 = system: COLO 205
UO-31 = system: UO-31
OVCAR-8 = system: OVCAR-8
A549 = system: A549
KM12 = system: KM12
HOP-62 = system: HOP-62
SNB-75 = system: SNB-75
HT-29 = system: HT-29
RPMI-8226 = system: RPMI-8226
OVCAR-5 = system: OVCAR-5
A498 = system: A498
SK-MEL-2 = system: SK-MEL-2
786-0 = system: 786-0
NCI-H226 = system: NCI-H226
EKVX = system: EKVX

Row | Structure (SMILES) | GI50 (Malme-3M) | GI50 (Hs-578T) | GI50 (SF-268) | GI50 (TK-10) | GI50 (DU-145) | GI50 (COLO 205) | GI50 (UO-31) | GI50 (OVCAR-8) | GI50 (A549) | GI50 (KM12) | GI50 (HOP-62) | GI50 (SNB-75) | GI50 (HT-29) | GI50 (RPMI-8226) | GI50 (OVCAR-5) | GI50 (A498) | GI50 (SK-MEL-2) | GI50 (786-0) | GI50 (NCI-H226) | GI50 (EKVX)
1 | CCNCCC1(CC)C(=O)NC(=O)NC1=O | > 100 µM (inactive) | > 100 µM (inactive) | > 100 µM (inactive) | > 100 µM (inactive) | > 100 µM (inactive) | > 100 µM (inactive) | > 100 µM (inactive) | > 100 µM (inactive) | > 100 µM (inactive) | > 100 µM (inactive) | > 100 µM (inactive) | > 100 µM (inactive) | > 100 µM (inactive) | > 100 µM (inactive) | > 100 µM (inactive) | > 100 µM (inactive) | > 100 µM (inactive) | > 100 µM (inactive) | > 100 µM (inactive) | > 100 µM (inactive)
2 | N#Cc1cc2c(cc1Cl)Sc1nnc(Nc3ccccc3)n1S2(=O)=O | 2.19 µM (inactive) | 2.3 µM (inactive) | 2.82 µM (inactive) | 4.22 µM (inactive) | 2.01 µM (inactive) | 2.18 µM (inactive) | 1.78 µM (inactive) | 2 µM (inactive) | 5.94 µM (inactive) | 2.06 µM (inactive) | 1.57 µM (inactive) | 3.4 µM (inactive) | 2.12 µM (inactive) | 0.692 µM (active) | 1.92 µM (inactive) | 8.32 µM (inactive) | 2.55 µM (inactive) | 2.32 µM (inactive) | 2.24 µM (inactive) | 2.77 µM (inactive)
3 | O=C1NC2c3c(I)sc(I)c3/C(=N\O)C2O1 (stereo not given) | 25.1 µM (inactive) | 11.5 µM (inactive) | 24.3 µM (inactive) | 48.5 µM (inactive) | 53.7 µM (inactive) | 20.8 µM (inactive) | 15.7 µM (inactive) | 18.4 µM (inactive) | 48.9 µM (inactive) | 30.1 µM (inactive) | 30.5 µM (inactive) | 59.6 µM (inactive) | 17.9 µM (inactive) | 67.9 µM (inactive) | 30.5 µM (inactive) | 33.6 µM (inactive) | 63.7 µM (inactive) | 24.4 µM (inactive) | 31 µM (inactive) | 10.9 µM (inactive)
4 | COC(=O)C1Cc2c([nH]c3ccccc23)-c2[nH]c3ccccc3c2CC(NC(C)=O)C(=O)NCC(=O)NCC(=O)N1 (stereo not given) | > 100 µM (inactive) | > 100 µM (inactive) | > 100 µM (inactive) | > 100 µM (inactive) | > 100 µM (inactive) | > 100 µM (inactive) | > 100 µM (inactive) | > 100 µM (inactive) | > 100 µM (inactive) | > 100 µM (inactive) | > 100 µM (inactive) | > 100 µM (inactive) | > 100 µM (inactive) | > 100 µM (inactive) | > 100 µM (inactive) | > 100 µM (inactive) | > 100 µM (inactive) | > 100 µM (inactive) | > 100 µM (inactive) | > 100 µM (inactive)
5 | O=C(O)CCSC1=NCCN1 | > 100 µM (inactive) | > 100 µM (inactive) | > 100 µM (inactive) | > 100 µM (inactive) | > 100 µM (inactive) | > 100 µM (inactive) | > 100 µM (inactive) | > 100 µM (inactive) | > 100 µM (inactive) | > 100 µM (inactive) | > 100 µM (inactive) | > 100 µM (inactive) | > 100 µM (inactive) | > 100 µM (inactive) | > 100 µM (inactive) | > 100 µM (inactive) | > 100 µM (inactive) | > 100 µM (inactive) | > 100 µM (inactive) | > 100 µM (inactive)
6 | Cc1cc(CS(=O)(=O)/C=C/c2ccccc2[N+](=O)[O-])c(CS(=O)(=O)/C=C/c2ccccc2[N+](=O)[O-])cc1C | 28 µM (inactive) | 3.44 µM (inactive) | 25.4 µM (inactive) | 35.4 µM (inactive) | 56.2 µM (inactive) | > 100 µM (inactive) | > 82 µM (inactive) | 24.1 µM (inactive) | 57.7 µM (inactive) | 81.8 µM (inactive) | 19.1 µM (inactive) | 5.27 µM (inactive) | > 61.7 µM (inactive) | 9.42 µM (inactive) | > 57.1 µM (inactive) | 26.5 µM (inactive) | 15.4 µM (inactive) | 12.5 µM (inactive) | 19 µM (inactive) | 29.9 µM (inactive)
7 | N#CC1=C(N)N(/N=C/c2ccccc2)C(c2ccccc2)C1(C#N)C#N (stereo not given) | 2.07 µM (inactive) | 24.1 µM (inactive) | 20.7 µM (inactive) | 6.3 µM (inactive) | 16.5 µM (inactive) | 2.19 µM (inactive) | 15.7 µM (inactive) | 18.7 µM (inactive) | 18.7 µM (inactive) | 22.8 µM (inactive) | 16.8 µM (inactive) | 16.9 µM (inactive) | 4 µM (inactive) | 4.94 µM (inactive) | 18.7 µM (inactive) | 15.9 µM (inactive) | 17.2 µM (inactive) | 4.7 µM (inactive) | 18.6 µM (inactive) | 20.2 µM (inactive)
8 | O=C1C(Cl)=C(N2CCOCC2)C(=O)c2c(O)ccc(O)c21 | 0.223 µM (active) | 0.859 µM (active) | 1.36 µM (inactive) | 0.638 µM (active) | 1.53 µM (inactive) | 0.19 µM (active) | 0.351 µM (active) | 0.368 µM (active) | 1.98 µM (inactive) | 1.64 µM (inactive) | 0.853 µM (active) | 0.667 µM (active) | 0.233 µM (active) | 1.84 µM (inactive) | 0.497 µM (active) | 1.63 µM (inactive) | 0.288 µM (active) | 0.296 µM (active) | 1.83 µM (inactive) | 1.46 µM (inactive)
9 | CC(=O)O[C@H]1CC[C@H]2[C@@H]3CCC4C(C)=NNC(=O)C4[C@H]3CC[C@]12C (stereo not given in full) | 99.8 µM (inactive) | 17.8 µM (inactive) | 34 µM (inactive) | > 76.6 µM (inactive) | > 75.5 µM (inactive) | > 100 µM (inactive) | > 100 µM (inactive) | 38 µM (inactive) | > 100 µM (inactive) | > 100 µM (inactive) | 19.8 µM (inactive) | 14.2 µM (inactive) | > 100 µM (inactive) | > 100 µM (inactive) | > 100 µM (inactive) | 37.2 µM (inactive) | > 75.2 µM (inactive) | 40.3 µM (inactive) | 39.5 µM (inactive) | 48.9 µM (inactive)
10 | c1ccc2c(c1)SCCC2NC1=NCCO1 (stereo not given) | > 100 µM (inactive) | > 100 µM (inactive) | > 100 µM (inactive) | > 100 µM (inactive) | > 100 µM (inactive) | > 100 µM (inactive) | > 100 µM (inactive) | > 100 µM (inactive) | > 100 µM (inactive) | > 100 µM (inactive) | > 100 µM (inactive) | > 100 µM (inactive) | 89.5 µM (inactive) | > 100 µM (inactive) | > 100 µM (inactive) | > 100 µM (inactive) | > 100 µM (inactive) | > 100 µM (inactive) | > 100 µM (inactive) | > 100 µM (inactive)
11 | O=C1Nc2ccc(S(=O)(=O)NCCO)cc2/C1=C1/Nc2ccccc2C1=O | 40.8 µM (inactive) | 6.73 µM (inactive) | 9.59 µM (inactive) | 18 µM (inactive) | 8 µM (inactive) | 2.82 µM (inactive) | 52.5 µM (inactive) | 11 µM (inactive) | > 100 µM (inactive) | 0.385 µM (active) | 16.2 µM (inactive) | 1.97 µM (inactive) | > 100 µM (inactive) | 92.5 µM (inactive) | 46.5 µM (inactive) | 2.53 µM (inactive) | 4.16 µM (inactive) | 9.31 µM (inactive) | > 100 µM (inactive) | 7.69 µM (inactive)
12 | COC(=O)c1ccccc1NCc1cc(O)ccc1O | 21.4 µM (inactive) | 19.7 µM (inactive) | 27.9 µM (inactive) | 26.1 µM (inactive) | 50.8 µM (inactive) | 19.4 µM (inactive) | 17.5 µM (inactive) | 18.1 µM (inactive) | 32.7 µM (inactive) | 17.5 µM (inactive) | 28.6 µM (inactive) | 28.8 µM (inactive) | 21.8 µM (inactive) | 10.5 µM (inactive) | 29.4 µM (inactive) | 34.3 µM (inactive) | 22.3 µM (inactive) | 17.7 µM (inactive) | 18 µM (inactive) | 22 µM (inactive)
13 | COc1ccc2c(c1)[nH]c1c(/C=C/c3ccccc3)nccc12 | 15.9 µM (inactive) | 19 µM (inactive) | 17.7 µM (inactive) | 19.4 µM (inactive) | 20.5 µM (inactive) | 3.83 µM (inactive) | 10.4 µM (inactive) | 14.2 µM (inactive) | 14.9 µM (inactive) | 14.1 µM (inactive) | 15.7 µM (inactive) | 12.3 µM (inactive) | 10 µM (inactive) | 13.3 µM (inactive) | 14.9 µM (inactive) | 12.3 µM (inactive) | 16.2 µM (inactive) | 15.1 µM (inactive) | 17.4 µM (inactive) | 12.6 µM (inactive)
14 | CCOC(=O)Nc1cc2c(c(N)n1)N=C(c1ccc(Cl)cc1Cl)CN2 | < 0.0178 µM (active) | < 0.0143 µM (active) | 0.0845 µM (active) | 3.78 µM (inactive) | < 0.0191 µM (active) | 0.0425 µM (active) | 0.052 µM (active) | 0.0276 µM (active) | < 0.0191 µM (active) | < 0.0174 µM (active) | < 0.0189 µM (active) | < 0.01 µM (active) | < 0.0181 µM (active) | < 0.01 µM (active) | 0.0392 µM (active) | 2.68 µM (inactive) | < 0.01 µM (active) | < 0.0217 µM (active) | 0.0314 µM (active) | 1.63 µM (inactive)
